From patent US12599672B2, “KRAS proteolysis targeting chimeras” (PAQ Therapeutics Inc., priority 2023, dated 2026) come the findings set out here.

Common to all, as to format: cell-based
Assay [1] addresses T1, KRAS G12D (Homo sapiens, UniProt P01116, G12D).
T1 construct: AsPc-1-KRAS (G12D)-HiBit-KI cell (Pharmaron); host or cells: AsPc-1-KRAS (G12D)-HiBit-KI cells (HiBiT knock-in at the endogenous KRAS locus)
The assay can be described thus: KRAS G12D HiBit assay. Particulars: AsPc-1-KRAS (G12D)-HiBit-KI cell, compound treatment for 24 hours, class symbols; for DC50: absolute DC50. The procedure, abridged: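 HiBiT luminescence, detected by adding lytic buffer, substrate and LgBiT protein, served as the KRAS G12D read-out. Compounds, serially diluted 3-fold over 10 points from 0.3 mM DMSO stock, were on cells for 24 h; percent inhibition normalized to cells given 0.1% DMSO only.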

Assay [2] has as its target T2, KRAS (Homo sapiens, UniProt P01116).
T2 construct: endogenous in cells; host or cells: KE39 (KRAS amplified) cells
Put plainly: KRASamp MSD assay. The note with it: KE39 (KRAS amplified) cells, treated with test compounds for 24 hr, MSD readout of KRAS degradation. The method, then:
KE39 (KRAS amplified) cells were cultured in RPMI 1640 medium (Gibco, 11875093), seeded into 96 well plate and treated with test compounds for 24 hr. The cells were washed with PBS and lysed in plate for 1 hr at 4° C. with agitation in RIPA buffer (Cat No. BP-115D) supplemented with protease and phosphatase inhibitor cocktail. The lysates were loaded into MSD plate coated with KRAS capture antibody (LSBio, C175665, 1:1000) for 1 h at RT with agitation. The plate was then washed three times with TBST and incubated with KRAS detection antibody (Abcam, Ab275876. 1:2000) for 1 h at RT. After washing three times with TBST, the plate was incubated with secondary detection antibody GAR (1:500) for 1 hr at RT followed with 3×TBST washing. 2×MSD reading buffer was added into individual wells and the plate was finally read by MSD reader (MSD, SQ 120 MM). The recombinant WT KRAS protein was used for standard curve generation and protein quantification. The degradation activity was calculated using the following formula: […]
DC50 was calculated by fitting the curve using GraphPad Prism v8.0.2 (analysis 263): […]

Assay [3] concerns the target T3, KRAS G12V (Homo sapiens, UniProt P01116, G12V).
T3 construct: SW620-KRAS (G12V)-HiBit-KI cell (Pharmaron); host or cells: SW620-KRAS (G12V)-HiBit-KI cells (HiBiT knock-in at the endogenous KRAS locus)
The assay can be described thus: KRAS G12V HiBit assay. Particulars: SW620-KRAS (G12V)-HiBit-KI cells, compound treatment for 24 hours, class symbols. The procedure, abridged: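 Luminescence from lytic Nano-Glo HiBiT detection with LgBiT read KRAS G12V levels after 24 h compound exposure. Dilutions were 10-point, 3-fold, from a 0.3 mM DMSO stock. Degradation activity was normalised to cells given 0.1% DMSO alone.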

T1 sequence (P01116 1-188 isoform P01116-2 G12D): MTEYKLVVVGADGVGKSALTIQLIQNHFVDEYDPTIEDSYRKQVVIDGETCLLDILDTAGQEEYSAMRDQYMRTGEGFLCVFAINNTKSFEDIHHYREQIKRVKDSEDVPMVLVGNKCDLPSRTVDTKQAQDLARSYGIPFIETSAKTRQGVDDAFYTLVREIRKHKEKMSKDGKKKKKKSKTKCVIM
T3 sequence (P01116 1-188 isoform P01116-2 G12V): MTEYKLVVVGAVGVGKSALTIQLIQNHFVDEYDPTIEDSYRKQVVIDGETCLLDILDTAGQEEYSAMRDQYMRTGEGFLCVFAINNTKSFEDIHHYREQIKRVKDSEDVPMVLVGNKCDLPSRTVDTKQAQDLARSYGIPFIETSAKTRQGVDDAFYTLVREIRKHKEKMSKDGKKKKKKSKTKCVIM
T2 sequence (P01116 1-188 isoform P01116-2): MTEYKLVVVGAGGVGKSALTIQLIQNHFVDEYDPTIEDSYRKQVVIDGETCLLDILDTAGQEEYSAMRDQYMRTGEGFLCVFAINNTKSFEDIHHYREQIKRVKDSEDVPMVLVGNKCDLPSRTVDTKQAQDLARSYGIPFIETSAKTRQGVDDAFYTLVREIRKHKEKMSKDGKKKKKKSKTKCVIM

As to `CCc1c(F)ccc2cc(O)cc(-c3ncc4c(N5CCC[C@](C)(N)C5)nc(OC[C@@]56CCCN5[C@H](COC(=O)N5CCC7(CC5)CC(N5CCC(c8ccc9c(c8)n(C)c(=O)n9C8CCC(=O)NC8=O)CC5)C7)CC6)nc4c3F)c12` (stereo partly drawn) [Compound 478, ((3S,7aS)-7a-(((4-((S)-3-amino-3-methylpiperidin-1-yl)-7-(8-ethyl-7-fluoro-3-hydroxynaphthalen-1-yl)-8-fluoropyrido[4,3-d]pyrimidin-2-yl)oxy)methyl)hexahydro-1H-pyrrolizin-3-yl)methyl 2-(4-(1-(2,6-dioxopiperidin-3-yl)-3-methyl-2-oxo-2,3-dihydro-1H-benzo[d]imidazol-5-yl)piperidin-1-yl)-7-azaspiro[3.5]nonane-7-carboxylate], the DC50 in assay [1] is under 100 nM; in assay [2] it was under 1 nM; in assay [3] it was under 10 nM.
`CCc1c(F)ccc2cc(O)cc(-c3ncc4c(N5CCC[C@@](C)(O)C5)nc(OC[C@@]56CCCN5[C@H](COC(=O)N5CCC(CN7CCC(c8ccc9c(c8)n(C)c(=O)n9C8CCC(=O)NC8=O)CC7)C5)CC6)nc4c3F)c12` (stereo partly drawn) [Compound 433, ((3S,7aS)-7a-(((7-(8-ethyl-7-fluoro-3-hydroxynaphthalen-1-yl)-8-fluoro-4-((R)-3-hydroxy-3-methylpiperidin-1-yl)pyrido[4,3-d]pyrimidin-2-yl)oxy)methyl)hexahydro-1H-pyrrolizin-3-yl)methyl 3-((4-(1-(2,6-dioxopiperidin-3-yl)-3-methyl-2-oxo-2,3-dihydro-1H-benzo[d]imidazol-5-yl)piperidin-1-yl)methyl)pyrrolidine-1-carboxylate]: the DC50 is under 100 nM in assay [1], 1 to 10 nM in assay [2] and under 10 nM in assay [3].
For `CCc1c(F)ccc2cc(O)cc(-c3ncc4c(N5CCCOCC5)nc(OC[C@@]56CCCN5[C@H](COC(=O)N5CCC(CN7CCC(c8ccc9c(c8)n(C)c(=O)n9C8CCC(=O)NC8=O)CC7)CC5)CC6)nc4c3F)c12` (stereo partly drawn) [Compound 422, ((3S,7aS)-7a-(((7-(8-ethyl-7-fluoro-3-hydroxynaphthalen-1-yl)-8-fluoro-4-(1,4-oxazepan-4-yl)pyrido[4,3-d]pyrimidin-2-yl)oxy)methyl)hexahydro-1H-pyrrolizin-3-yl)methyl 4-((4-(1-(2,6-dioxopiperidin-3-yl)-3-methyl-2-oxo-2,3-dihydro-1H-benzo[d]imidazol-5-yl)piperidin-1-yl)methyl)piperidine-1-carboxylate], in that order: under 100 nM, under 1 nM and under 10 nM.
Take `Cn1c(=O)n(C2CCC(=O)NC2=O)c2ccc(C3CCN(CC4CCN(C(=O)OC[C@@H]5CC[C@]6(COc7nc(N8CCC[C@@](C)(O)C8)c8cnc(-c9cc(O)cc%10ccc(F)c(F)c9%10)c(F)c8n7)CCCN56)CC4)CC3)cc21` (stereo partly drawn) [Compound 410, ((3S,7aS)-7a-(((7-(7,8-difluoro-3-hydroxynaphthalen-1-yl)-8-fluoro-4-((R)-3-hydroxy-3-methylpiperidin-1-yl)pyrido[4,3-d]pyrimidin-2-yl)oxy)methyl)hexahydro-1H-pyrrolizin-3-yl)methyl 4-((4-(1-(2,6-dioxopiperidin-3-yl)-3-methyl-2-oxo-2,3-dihydro-1H-benzo[d]imidazol-5-yl)piperidin-1-yl)methyl)piperidine-1-carboxylate]: the DC50 in assay [1] is under 100 nM; in assay [2] it was under 1 nM; in assay [3], under 10 nM.
For `CCc1c(F)ccc2cc(O)cc(-c3ncc4c(N5CCC[C@@](C)(O)C5)nc(OC[C@@]56CCCN5[C@H](CN5CCC(CN7CCC(Cc8ccc9c(c8)n(C)c(=O)n9C8CCC(=O)NC8=O)CC7)CC5)CC6)nc4c3F)c12` (stereo partly drawn) [Compound 436, 3-(5-((1-((1-(((3S,7aS)-7a-(((7-(8-ethyl-7-fluoro-3-hydroxynaphthalen-1-yl)-8-fluoro-4-((R)-3-hydroxy-3-methylpiperidin-1-yl)pyrido[4,3-d]pyrimidin-2-yl)oxy)methyl)hexahydro-1H-pyrrolizin-3-yl)methyl)piperidin-4-yl)methyl)piperidin-4-yl)methyl)-3-methyl-2-oxo-2,3-dihydro-1H-benzo[d]imidazol-1-yl)piperidine-2,6-dione], the DC50 was under 100 nM in assay [1], 1 to 10 nM in assay [2] and 10 to 100 nM in assay [3].
For `CCc1c(F)ccc2cc(O)cc(-c3ncc4c(N5CCC[C@@](C)(O)C5)nc(OC[C@@]56CCCN5[C@H](COC(=O)N5CCC(CN7CCC(c8ccc9c(c8F)n(C)c(=O)n9C8CCC(=O)NC8=O)CC7)CC5)CC6)nc4c3F)c12` (stereo partly drawn) [Compound 96, [(3S,8S)-8-[[7-(8-Ethyl-7-fluoro-3-hydroxy-1-naphthyl)-8-fluoro-4-[(3R)-3-hydroxyl-3-methyl-1-piperidyl]pyrido[4,3-d]pyrimidin-2-yl]oxymethyl]-1,2,3,5,6,7-hexahydropyrrolizin-3-yl]methyl4-[[4-[1-(2,6-dioxo-3-piperidyl)-4-fluoro-3-methyl-2-oxo-benzimidazol-5-yl]-1-piperidyl]methyl]piperidine-1-carboxylate], the DC50 is under 100 nM in assay [1], under 1 nM in assay [2] and under 10 nM in assay [3]. Moreover, the Dmax in assay [1] is over 50%.
Taken in the same sequence, the figures for `C#Cc1c(F)ccc2cc(O)cc(-c3ncc4c(N5CCCCC5)nc(OC[C@@]56CCCN5[C@H](COC(=O)N5CCC(CN7CCC(c8ccc9c(c8)n(C)c(=O)n9C8CCC(=O)NC8=O)CC7)CC5)CC6)nc4c3F)c12` (stereo partly drawn) [Compound 122, ((3S,7aS)-7a-(((7-(8-Ethynyl-7-fluoro-3-hydroxynaphthalen-1-yl)-8-fluoro-4-(piperidin-1-yl)pyrido[4,3-d]pyrimidin-2-yl)oxy)methyl)hexahydro-1H-pyrrolizin-3-yl)methyl4-((4-(1-(2,6-dioxopiperidin-3-yl)-3-methyl-2-oxo-2,3-dihydro-1H-benzo[d]imidazol-5-yl)piperidin-1-yl)methyl) piperidine-1-carboxylate] were under 100 nM, under 1 nM, under 10 nM and over 50%.
Taken in the same sequence, the figures for `C#Cc1c(F)ccc2cc(O)cc(-c3ncc4c(N5CCCC(C#N)CC5)nc(OC[C@@]56CCCN5[C@H](COC(=O)N5CCC(CN7CCC(c8ccc9c(c8)n(C)c(=O)n9C8CCC(=O)NC8=O)CC7)CC5)CC6)nc4c3F)c12` (stereo partly drawn) [Compound 110, ((3S,7aS)-7a-(((4-(4-Cyanoazepan-1-yl)-7-(8-ethynyl-7-fluoro-3-hydroxynaphthalen-1-yl)-8-fluoropyrido[4,3-d]pyrimidin-2-yl)oxy)methyl)hexahydro-1H-pyrrolizin-3-yl)methyl 4-((4-(1-(2,6-dioxopiperidin-3-yl)-3-methyl-2-oxo-2,3-dihydro-1H-benzo[d]imidazol-5-yl)piperidin-1-yl)methyl) piperidine-1-carboxylate] were under 100 nM, 1 to 10 nM, under 10 nM and over 50%.
Consider `C#Cc1c(F)ccc2cc(O)cc(-c3ncc4c(N5CCC[C@@](C)(O)C5)nc(OCC5(CN6CCC7(CC6)CC(N6CCN(c8cccc9c8n(C)c(=O)n9C8CCC(=O)NC8=O)CC6)C7)CC5)nc4c3F)c12` (stereo partly drawn) [Compound 71], for which the figures for the DC50 in assay [1], in assay [2] and in assay [3] were under 100 nM, under 1 nM and under 10 nM, respectively.
Taken in the same sequence, the figures for `C#Cc1c(F)ccc2cc(O)cc(-c3ncc4c(N5CCC[C@@](C)(O)C5)nc(OC[C@@]56CCCN5[C@H](COC(=O)N5CCC(OCC#Cc7cccc8c7n(C)c(=O)n8C7CCC(=O)NC7=O)CC5)CC6)nc4c3F)c12` (stereo partly drawn) [Compound 372, ((3S,7aS)-7a-(((7-(8-ethynyl-7-fluoro-3-hydroxynaphthalen-1-yl)-8-fluoro-4-((R)-3-hydroxy-3-methylpiperidin-1-yl)pyrido[4,3-d]pyrimidin-2-yl)oxy)methyl)hexahydro-1H-pyrrolizin-3-yl)methyl 4-((3-(1-(2,6-dioxopiperidin-3-yl)-3-methyl-2-oxo-2,3-dihydro-1H-benzo[d]imidazol-4-yl)prop-2-yn-1-yl)oxy)piperidine-1-carboxylate] were under 100 nM, 1 to 10 nM and 10 to 100 nM.
